Entries after “also recorded” stand apart in the source; their conditions may differ.
Tests used:
MDA-MB-435P cells = experiment: MTS monolayer proliferation assay, drug combinations analysed with CalcuSyn; type: cell-based, human; settings: in combination with adriamycin
From the text: (§1) MTS (which is 3-(4,5 Dimethylthiazol-2-yl)-5-(3-carboxyphenyl)-2-(4-sulfophenyl)-2H-tetrazolium, inner salt) assays are used to assess the antiproliferative effects of the drug combinations. The HCT116 and MDA-MB-435P tumor cell lines, previously characterized as sensitive to HDA inhibitors, are chosen for these experiments along with clinically relevant chemotherapeutic drugs. A commercial program, “CalcuSyn”, is employed to determine whether the combined effects are synergistic, antagonistic or additive.
(§2) Two cell lines, the HCT116 human colon carcinoma cells and MDA-MB-435P, a hormone independent breast carcinoma cell line, are chosen based on their sensitivity to HDAI. Chemotherapeutic agents are paired with the cell lines based on their clinical relevance. The compounds tested in combination with N-hydroxy-3-[4-[[(2-hydroxyethyl)[2-(1H-indol-3-yl)ethyl]-amino]methyl]phenyl]-2E-2-propenamide include adriamycin which is clinically used in the treatment of breast cancer, 5-fluoruracil (5-FU), and camptothecin, used clinically for colon cancer. Due to the reported cross-talk between histone deacetylases and DNA methyl transferases, 5-azacytidine, a DNA methyltransferase inhibitor, is also tested.
Human breast carcinoma cells, MDA-MB-435P are cultured as previously described in the reference above. Cell proliferation is measured using an adaptation of published procedures essentially as described, in Zhang R D, Fidler I J, Price J E, “Relative malignant potential of human breast carcinoma cell lines established from pleural effusions and a brain metastasis”, Invasion-Metastasis 1991; 11 :204-15.
Experiments are done using five-point or six-point drug titrations in 96-well tissue culture plates, with the top row left empty. HCT116 and MDA-MB-435P cells are suspended in complete media at a density of 3.6×10^3 and 2.1×10^4 cell/ml, respectively, and 190 μl are added per well. Complete medium (200 μl) is added to the top row. 24 hours later, after the cells have attached to the bottom of the plate, 10 μl of MTS solution are added to one of the plates to determine the activity at the time of compound addition (T0). The plate is incubated at 37° C. for 4 hours and the OD is measured on a Molecular Devices Thermomax at 490 nm using the Softmax program. The T0 plate serves as a reference for initial activity at the beginning of the experiment. Compound addition begins 24 hours after seeding, the same time as the T0 determination. […] One cell line is tested with four compounds or combinations per plate. 10 microliters of each of the six dilutions are added in triplicate and complete medium is added to the bottom row. The compounds are added to the plates singly or in combination with N-hydroxy-3-[4-[[(2-hydroxyethyl)[2-(1H-indol-3-yl)ethyl]-amino]methyl]phenyl]-2E-2-propenamide. In pretreated combinations, the drugs are added simultaneously, 24 hr prior, or 24 hr after N-hydroxy-3-[4-[[(2-hydroxyethyl)[2-(1H-indol-3-yl)ethyl]-amino]methyl]phenyl]-2E-2-propenamide. As controls for pretreatment, new dilutions are added to untreated cells singly or in combination 48 hours after seeding.
The plates are incubated at 37° C. for 72 hours from seeding. The MTS solution is added (as for the T0 plate) and read four hours later. In order to analyze the data, the average value of media alone (background) is subtracted from each experimental well and the triplicate values are averaged for each compound dilution. The following formulas are used to calculate percent growth.
The “% Growth” is plotted against compound concentration and used to calculate IC50s employing the user-defined spline function in Microsoft Excel. This function uses linear regression between data points to predict the concentration of compounds at 50% inhibition. IC50s are used to determine the dose range for each compound and the resultant combinations.
(§3) Using the CalcuSyn program, the Combination Index (CI) is determined by the isobologram equation CI=(D)1/(Dx)1+(D)2/(Dx)2. […]

HCT116 cells [1] = experiment: as above; type: cell-based, human
From the text: as §1
Two cell lines, the HCT116 human colon carcinoma cells and MDA-MB-435P, a hormone independent breast carcinoma cell line, are chosen based on their sensitivity to HDAI. Chemotherapeutic agents are paired with the cell lines based on their clinical relevance. […]
(§4) Experiments are done using five-point or six-point drug titrations in 96-well tissue culture plates, with the top row left empty. […] The plate is incubated at 37° C. for 4 hours and the OD is measured on a Molecular Devices Thermomax at 490 nm using the Softmax program. […]
(§5) The plates are incubated at 37° C. for 72 hours from seeding. The MTS solution is added (as for the T0 plate) and read four hours later. […]
as §3

tumor cell lines = experiment: MTS monolayer proliferation assay, combination with 5-azacytidine (cell line not stated); type: cell-based; settings: in combination with 5-azacytidine
From the text: as §1, §2
as §4, with “empty. HCT116 and MDA-MB-435P cells are suspended in complete media at a density of 3.6×10^3 and 2.1×10^4 cell/ml, respectively, and 190 μl are added per well. Complete medium (200 μl) is added to the top row.” for “empty.”
as §5
Using the CalcuSyn program, the Combination Index (CI) is determined by the isobologram equation CI=(D)1/(Dx)1+(D)2/(Dx)2. […] For each compound the % growth values at each dose as determined in the MTS assay is used. […]

[2] = test system: histone acetylation (intracellular HDA); experiment: Histone acetylation in cells treated in culture; type: cell-based, human
p21 promoter = experiment: Transcriptional activation of the p21 promoter; type: cell-based; settings: single agent; sub-micromolar concentrations
cell growth = experiment: Inhibition of cell growth in vitro; type: cell-based; settings: single agent
HCT116 cells [3] = experiment: Apoptosis in HCT116 cells; type: cell-based, human; settings: single agent, sub micromolar levels, 48 to 72 hours of exposure
[4] = test system: normal dermal fibroblasts; experiment: Effect on normal dermal fibroblasts; type: cell-based; settings: single agent; compared with HCT116 cells
[5] = test system: HCT116 colon carcinoma xenograft; experiment: HCT116 colon carcinoma xenograft model; type: in vivo, athymic mice; settings: single daily intravenous doses 10 to 100 mg/kg
[6] = test system: A549 lung carcinoma xenograft; experiment: A549 lung carcinoma xenograft model; type: in vivo; settings: single daily intravenous doses 10 to 100 mg/kg
[7] = test system: MDA-M B-435P breast carcinoma xenograft; experiment: MDA-MB-435P breast carcinoma xenograft model; type: in vivo; settings: MDA-MB-435P breast xenograft; single daily intravenous doses 10 to 100 mg/kg
[8] = test system: acetylated histone H3 and H4; experiment: Acetylated histone levels in HCT116 human tumor xenografts; settings: in vivo, HCT116 human tumor xenografts from athymic mice
From the text: The compound also increases acetylated histone H3 and H4 levels in vivo, in HCT116 human tumor xenografts from athymic mice. In this example, the effects of combining N-hydroxy-3-[4-[[(2-hydroxyethyl)[2-(1H-indol-3-yl)ethyl]-amino]methyl]phenyl]-2E-2-propenamide with standard therapeutics or with other experimental drugs on monolayer proliferation of tumor cell lines are investigated.

[9] = HDAI added 24 hr prior to adriamycin
[10] = adriamycin added 24 hr prior to HDAI

O=C(/C=C/c1ccc(CN(CCO)CCc2c[nH]c3ccccc23)cc1)NO [N-hydroxy-3-[4-[[(2-hydroxyethyl)[2-(1H-indol-3-yl)ethyl]-amino]methyl]phenyl]-2E-2-propenamide]
combination index (MDA-MB-435P cells; [9]): ~1 | combined antiproliferative effect (isobologram / combination index) (MDA-MB-435P cells; [9]): additive effects | combination index (MDA-MB-435P cells; [10]): < 0.1 | combined antiproliferative effect (isobologram / combination index) (MDA-MB-435P cells; [10]): synergistic effects; also recorded: strong synergy; also recorded: very strong synergy | combination index (MDA-MB-435P cells; simultaneous addition): ~1 | combined antiproliferative effect (isobologram / combination index) (MDA-MB-435P cells; simultaneous addition): additive effects | combined antiproliferative effect (isobologram / combination index) (HCT116 cells [1]; in combination with 5-FU): mainly additive effects; also recorded: additive or weak antagonistic effects | combined antiproliferative effect (combination index) (HCT116 cells [1]; in combination with camptothecin): mainly additive effects; also recorded: additive or weak antagonism; also recorded: additive or weak antagonistic effects | combined antiproliferative effect (tumor cell lines; all drug addition schedules): mainly additive effects; also recorded: concentration-dependent effects | combined antiproliferative effect (tumor cell lines; high inhibitory concentrations (IC50)): additive effects | combined antiproliferative effect (tumor cell lines; low inhibitory concentrations (IC25)): antagonistic effects | levels of histone acetylation ([2]; HCT116 cells treated in culture continuously for 3 to 24 hr): Increased levels of histone acetylation | histone acetylation ([2]; single agent, sub-micromolar concentrations, cells not given): increases histone acetylation | p21 promoter activation (p21 promoter): transcriptionally activates the p21 promoter | concentration inhibiting cell growth (cell growth): sub-micromolar concentrations | apoptosis (HCT116 cells [3]): produces apoptosis | cellular response of normal dermal fibroblasts [4]: predominantly undergo cell-cycle arrest | reduction of viability of normal dermal fibroblasts [4]: much higher concentrations and longer times of exposure are required | tumor growth [5]: reproducibly inhibits tumor growth | tumor growth [6]: reproducibly inhibits tumor growth | tumor growth [7]: reproducibly inhibits tumor growth | acetylated histone H3 levels [8]: increases | acetylated histone H4 levels [8]: increases

Reference: US20070123580A1, “Combination of histone deacetylase inhibitors with chemotherapeutic agents” (priority 2003, published 2007)
